# According to ChEMBL document CHEMBL5096216, “Rational Design, Synthesis, and Biological Evaluation of Novel S1PR2 Antagonists for Reversing 5-FU-Resistance in Colorectal Cancer” (J Med Chem, 2022):
# Active and inactive are the calls of the source. The rule behind the calls is not given here.
# Experiments:
# SW620/5-FU [1] = test: Reversal of 5-FU resistance in human SW620/5-FU cells assessed as fold reduction in 5-Fluorouracil IC50 at 2 uM incubated for 48 hrs; type: functional
# HT-29 [2] = test: Antiproliferative activity against human HT-29 cells assessed as reduction in cell viability incubated for 48 hrs by MTT assay; type: functional, cell-based; settings: HT-29, 48 h
# SW620/5-FU [3] = test: Induction of apoptosis in human SW620/5-FU cells assessed as early apoptotic cells at 10 uM incubated for 24 hrs in presence of 5-FU by Annexin-V/PI staining based flow cytometry assay (reference value: 2.73%); type: functional
# HT-29 [4] = test: Downregulation of JMJD3 expression in 5-FU resistant human HT-29 cells incubated for 12 hrs by Western blot analysis; type: functional, cell-based; settings: dose 2.5-20 µM, DDE = dose-dependent effect
# SW620/5-FU [5] = test: Induction of apoptosis in human SW620/5-FU cells assessed as viable cells at 10 uM incubated for 24 hrs by Annexin-V/PI staining based flow cytometry assay (reference value: 94.3%); type: functional; settings: read-out: Activity
# [6] = biological target: Sphingosine 1-phosphate receptor 1 (Homo sapiens, UniProt P21453); test: Binding affinity to S1PR1 (unknown origin) assessed as dissociation constant by surface plasmon resonance analysis
# SW620/5-FU [7] = test: Antitumor activity against human SW620/5-FU cells xenografted in nude mouse assessed as tumor volume at 5 mg/kg/day, iv measured on day 1 in presence of 5-FU (reference value: 105 +/- 14 mm3); type: functional; settings: time 1 day
# SW620/5-FU [8] = test: Induction of apoptosis in human SW620/5-FU cells assessed as early apoptotic cells at 20 uM incubated for 24 hrs by Annexin-V/PI staining based flow cytometry assay (reference value: 2.73%); type: functional
# SW620/5-FU [9] = test: Antitumor activity against human SW620/5-FU cells xenografted in nude mouse assessed as tumor growth inhibition at 10 mg/kg/day, iv in presence of 5-FU; type: functional; settings: read-out: TGI
# SW620/5-FU [10] = test: Induction of apoptosis in human SW620/5-FU cells assessed as viable cells at 20 uM incubated for 24 hrs in presence of 5-FU by Annexin-V/PI staining based flow cytometry assay (reference value: 94.3%); type: functional; settings: read-out: Activity
# [11] = Cytotoxicity against human NCM460 cells assessed as reduction in cell viability incubated for 48 hrs by MTT assay; type: toxicity, cell-based
# SW620/5-FU [12] = test: Antitumor activity against human SW620/5-FU cells xenografted in nude mouse assessed as tumor wight at 1 mg/kg/day, iv in presence of 5-FU (reference value: 1.3 +/-0.6 g); type: functional
# [13] = Metabolic stability in human plasma assessed as compound remaining at 1 mg/ml measured after 48 hrs by HPLC analysis; type: ADME, cell-free; settings: read-out: Stability
# [14] = biological target: Sphingosine 1-phosphate receptor 3 (Homo sapiens, UniProt Q99500); test: Binding affinity to S1PR3 (unknown origin) assessed as dissociation constant by surface plasmon resonance analysis
# SW620/5-FU [15] = test: Induction of apoptosis in human SW620/5-FU cells assessed as necrotic cells at 20 uM incubated for 24 hrs by Annexin-V/PI staining based flow cytometry assay (reference value: 0%); type: functional
# SW620/5-FU [16] = test: Induction of apoptosis in human SW620/5-FU cells assessed as necrotic cells at 10 uM incubated for 24 hrs in presence of 5-FU by Annexin-V/PI staining based flow cytometry assay (reference value: 0%); type: functional
# SW620/5-FU [17] = test: Induction of apoptosis in human SW620/5-FU cells assessed as late apoptotic cells at 20 uM incubated for 24 hrs in presence of 5-FU by Annexin-V/PI staining based flow cytometry assay (reference value: 2.97%); type: functional
# SW620/5-FU [18] = test: Downregulation of DPD expression in human SW620/5-FU cells incubated for 12 hrs by Western blot analysis; type: functional, cell-based; settings: dose 2.5-20 µM, DDE = dose-dependent effect
# HT-29 [19] = test: Downregulation of DPD expression in 5-FU resistant human HT-29 cells incubated for 12 hrs by Western blot analysis; type: functional, cell-based; settings: dose 2.5-20 µM, DDE = dose-dependent effect
# SW620/5-FU [20] = test: Upregulation of H3K27me3 expression in human SW620/5-FU cells incubated for 12 hrs by Western blot analysis; type: functional, cell-based; settings: dose 2.5-20 µM, DDE = dose-dependent effect
# HCT-116 [21] = test: cells; settings: Homo sapiens, HCT-116, 48 h
# Description: Reversal of 5-FU resistance in human HCT-116 cells overexpressing DPD assessed as reduction in 5-Fluorouracil IC50 at 5 uM incubated for 48 hrs (Rvb = 1836.66 +/- 87.95 %)
# [22] = biological target: T1, Sphingosine 1-phosphate receptor 4 (Homo sapiens, UniProt O95977); test: Binding affinity to S1PR4 (unknown origin) assessed as dissociation constant by surface plasmon resonance analysis
# T1 sequence (O95977 whole entry): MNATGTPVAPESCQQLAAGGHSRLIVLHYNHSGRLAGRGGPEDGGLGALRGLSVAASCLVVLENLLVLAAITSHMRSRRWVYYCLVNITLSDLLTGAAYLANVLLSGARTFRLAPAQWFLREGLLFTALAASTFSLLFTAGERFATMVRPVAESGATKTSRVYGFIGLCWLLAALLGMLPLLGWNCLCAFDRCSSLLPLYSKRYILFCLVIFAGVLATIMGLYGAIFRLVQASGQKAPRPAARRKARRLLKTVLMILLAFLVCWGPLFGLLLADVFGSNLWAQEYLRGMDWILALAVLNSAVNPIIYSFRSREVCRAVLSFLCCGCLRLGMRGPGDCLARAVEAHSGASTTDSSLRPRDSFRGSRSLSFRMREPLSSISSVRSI
# HCT-116 [23] = test: Reversal of 5-FU resistance in human HCT-116 cells overexpressing DPD assessed as fold reduction in 5-Fluorouracil IC50 at 5 uM incubated for 48 hrs; type: functional
# SW620/5-FU [24] = test: Induction of apoptosis in human SW620/5-FU cells assessed as necrotic cells at 10 uM incubated for 24 hrs by Annexin-V/PI staining based flow cytometry assay (reference value: 0%); type: functional
# [25] = Toxicity in nude mouse xenografted with human SW620/5-FU cells assessed as morphological changes in lung at 1 to 10 mg/kg/day, iv by hematoxylin-eosin staining based analysis; type: organism-based; settings: in vivo, dose 1-10 mg/kg/day
# [26] = Toxicity in nude mouse xenografted with human SW620/5-FU cells assessed as morphological changes in heart at 1 to 10 mg/kg/day, iv by hematoxylin-eosin staining based analysis; type: organism-based; settings: in vivo, dose 1-10 mg/kg/day
# SW620/5-FU [27] = test: Inhibition of FBAL stimulated DPD expression in human SW620/5-FU cells at 10 uM incubated for 72 hrs by Western blot analysis; type: functional, cell-based
# SW620/5-FU [28] = test: Downregulation of H3K27me3 expression in human SW620/5-FU cells at 10 uM incubated for 72 hrs by Western blot analysis; type: functional, cell-based
# SW620/5-FU [29] = test: Induction of apoptosis in human SW620/5-FU cells assessed as viable cells at 20 uM incubated for 24 hrs by Annexin-V/PI staining based flow cytometry assay (reference value: 94.3%); type: functional; settings: read-out: Activity
# [30] = Metabolic stability in rat plasma assessed as half life at 1 mg/ml incubated for 48 hrs by HPLC analysis; type: ADME, cell-free
# SW620/5-FU [31] = test: Antitumor activity against human SW620/5-FU cells xenografted in nude mouse assessed as tumor wight at 10 mg/kg/day, iv in presence of 5-FU (reference value: 1.3 +/- 0.6 g); type: functional
# HCT-116 [32] = test: Reversal of 5-FU resistance in human HCT-116 cells overexpressing DPD assessed as reduction in cell viability incubated for 48 hrs in presence of 5-FU by MTT assay; type: functional, cell-based; settings: HCT-116, 48 h
# Chain of Sphingosine 1-phosphate receptor 3 (Q99500 whole entry): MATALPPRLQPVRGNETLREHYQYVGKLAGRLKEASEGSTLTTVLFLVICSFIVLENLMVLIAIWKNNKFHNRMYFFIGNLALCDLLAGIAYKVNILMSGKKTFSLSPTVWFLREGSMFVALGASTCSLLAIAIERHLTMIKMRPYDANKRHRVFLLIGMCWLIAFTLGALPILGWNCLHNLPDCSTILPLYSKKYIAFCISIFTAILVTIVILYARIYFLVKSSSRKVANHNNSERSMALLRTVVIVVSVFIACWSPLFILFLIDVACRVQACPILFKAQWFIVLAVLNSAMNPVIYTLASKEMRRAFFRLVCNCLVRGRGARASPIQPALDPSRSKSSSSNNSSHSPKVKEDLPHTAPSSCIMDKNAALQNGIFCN
# Chain of Sphingosine 1-phosphate receptor 1 (P21453 whole entry): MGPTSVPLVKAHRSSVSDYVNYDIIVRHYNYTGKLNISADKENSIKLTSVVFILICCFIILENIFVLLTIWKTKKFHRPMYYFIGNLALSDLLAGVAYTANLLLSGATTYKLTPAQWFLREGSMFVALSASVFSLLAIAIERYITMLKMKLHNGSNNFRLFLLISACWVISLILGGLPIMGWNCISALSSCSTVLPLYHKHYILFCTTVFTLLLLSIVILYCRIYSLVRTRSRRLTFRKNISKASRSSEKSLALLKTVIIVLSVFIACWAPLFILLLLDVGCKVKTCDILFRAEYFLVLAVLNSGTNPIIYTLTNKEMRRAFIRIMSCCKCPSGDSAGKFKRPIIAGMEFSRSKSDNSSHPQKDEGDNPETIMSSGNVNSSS
structure (smiles),measurement,setting,value
CCC(CC)CN1CCN(C(=O)Nc2cc(Oc3ccc(F)cc3)cc(Oc3ccc(C(=O)NC)cc3)c2)CC1,fold change (FC),SW620/5-FU [1],42
same,IC50,HT-29 [2],> 100 µM
same,Activity,SW620/5-FU [3],4.41%
same,Activity,HT-29 [4],Dde
same,viability at 10 µM,SW620/5-FU [5],93.8%
same,Kd,[6],> 0.1 µM
same,Activity,SW620/5-FU [7],103 mm3
same,Activity,SW620/5-FU [8],3.76%
same,inhibition in vivo at 10 mg/kg/day,SW620/5-FU [9],73.8%
same,viability at 20 µM,SW620/5-FU [10],64.2%
same,IC50 at 48 hrs,[11],> 100 µM
same,Activity,SW620/5-FU [12],0.6 g
same,"remaining at 48 h, 1 mg/ml",[13],96.4%
same,Kd,[14],> 0.1 µM
same,Activity,SW620/5-FU [15],0.086%
same,Activity,SW620/5-FU [16],0.17%
same,Activity,SW620/5-FU [17],7.14%
same,Activity,SW620/5-FU [18],Dde
same,Activity,HT-29 [19],Dde
same,Activity,SW620/5-FU [20],Dde
same,IC50,HCT-116 [21],45.1 µM
same,Kd,[22],> 0.1 µM
same,fold change (FC),HCT-116 [23],41
same,Activity,SW620/5-FU [24],0.042%
same,Activity,[25],Non-Toxic
same,Activity,[26],Non-Toxic
same,inhibition,SW620/5-FU [27],Active
same,Activity,SW620/5-FU [28],Active
same,viability at 20 µM,SW620/5-FU [29],92.1%
same,half-life at 1 mg/ml,[30],> 48 h
same,Activity,SW620/5-FU [31],0.3 g
same,IC50,HCT-116 [32],6.42 µM
